Test results reported in ChEMBL document CHEMBL5620422, “Design, synthesis, and biological evaluation of a series of new anthraquinone derivatives as anti-ZIKV agents” (Eur J Med Chem, 2023).
pKd: −log10 of the molar value. Calls of active or inactive are those of the source. The calls are words filed in the database; no cut-off is given here.

Assays:
[1] = system: Zika virus; assay: Antiviral activity against ZIKV ZG-01 infected in A549 cells preincubated for 1 hr followed by replacement with fresh media containing compound for 48 hrs by crystal violet staining based plaque assay; type: functional, organism-based; conditions: time 49.0 hrs
[2] = Cytotoxicity against human A549 cells assessed as reduction in cell viability incubated for 48 hrs by MTT assay; type: toxicity, cell-based
[3] = system: Zika virus; assay: Antiviral activity against ZIKV ZG-01 infected in Vero cells preincubated for 1 hr followed by replacement with fresh media containing compound for 48 hrs by crystal violet staining based plaque assay; type: functional
[4] = Cytotoxicity against african green monkey Vero cells assessed as reduction in cell viability incubated for 48 hrs by MTT assay; type: toxicity, cell-based; conditions: chlorocebus sabaeus
[5] = system: Zika virus; assay: Antiviral activity against ZIKV ZG-01 infected in SNB-19 cells preincubated for 1 hr followed by replacement with fresh media containing compound for 48 hrs by crystal violet staining based plaque assay; type: functional
[6] = Cytotoxicity against human SNB-19 cells assessed as reduction in cell viability incubated for 48 hrs by MTT assay; type: toxicity, cell-based
[7] = Cytotoxicity against human JEG-3 cells assessed as reduction in cell viability incubated for 48 hrs by MTT assay; type: toxicity, cell-based
[8] = system: Zika virus; assay: Antiviral activity against ZIKV ZG-01 infected in A549 cells assessed as reduction in viral replication at 20 uM preincubated for 1 hr followed by replacement with fresh media containing compound for 48 hrs by RT-PCR analysis; type: functional; set-up: scale not given: the % may be the effect or the level left; conditions: time 49 hrs
[9] = system: Zika virus; assay: Antiviral activity against ZIKV ZG-01 infected in Vero cells assessed as reduction in viral replication at 20 uM preincubated for 1 hr followed by replacement with fresh media containing compound for 48 hrs by RT-PCR analysis; type: functional; set-up: scale not given: the % may be the effect or the level left; conditions: time 49 hrs
[10] = system: Zika virus; assay: Antiviral activity against ZIKV ZG-01 infected in JEG-3 cells assessed as reduction in viral replication at 20 uM preincubated for 1 hr followed by replacement with fresh media containing compound for 48 hrs by RT-PCR analysis; type: functional; set-up: scale not given: the % may be the effect or the level left; conditions: time 49 hrs
[11] = system: Zika virus; assay: Antiviral activity against ZIKV ZG-01 infected in JEG-3 cells assessed as reduction in viral envelope protein expression at 5 uM by immunofluorescence assay; type: functional, organism-based
[12] = system: Zika virus; assay: Antiviral activity against ZIKV ZG-01 infected in SNB-19 cells assessed as reduction in viral envelope protein level at 10 uM after 18 to 48 hrs by Western blot assay; type: functional, organism-based; conditions: time 18-48 hrs
[13] = Toxicity in Ifnar1 knockout C57BL/6 mouse assessed as body weight loss at 60 mg/kg administered for 7 days; type: organism-based; conditions: in vivo, 168 h, time 7 day
[14] = Toxicity in Ifnar1 knockout C57BL/6 mouse assessed as corneal opacities at 60 mg/kg administered for 7 days; type: organism-based; conditions: in vivo, 168 h, time 7 day
[15] = system: Zika virus; assay: Antiviral activity against ZIKV ZG-01 infected in Ifnar1 knockout C57BL/6 mouse assessed as reduction in number of animal paralysis at 20 mg/kg, iv administered daily for 7 days; type: functional, organism-based; conditions: time 7.0 day
[16] = system: Zika virus; assay: Antiviral activity against ZIKV ZG-01 infected in Ifnar1 knockout C57BL/6 mouse assessed as increase in animal survival at 20 mg/kg, iv administered daily for 7 days; type: functional, organism-based; conditions: time 7.0 day
[17] = system: Zika virus; assay: Antiviral activity against ZIKV ZG-01 infected in Ifnar1 knockout C57BL/6 mouse assessed as reduction in mortality rate at 20 mg/kg, iv administered daily for 7 days; type: functional, organism-based; conditions: time 7.0 day
[18] = system: Zika virus; assay: Antiviral activity against ZIKV ZG-01 infected in Ifnar1 knockout C57BL/6 mouse assessed as reduction in weight loss at 20 mg/kg, iv administered daily for 7 days and measured upto 12 dpi; type: functional, organism-based; conditions: time <= 12.0 day
[19] = system: Zika virus; assay: Antiviral activity against ZIKV ZG-01 infected in Ifnar1 knockout C57BL/6 mouse assessed as reduction in brain viral RNA at 20 mg/kg, iv administered daily for 7 days and measured upto 12 dpi by RT-qPCR analysis; type: functional, organism-based; conditions: time <= 12.0 day
[20] = system: Zika virus; assay: Antiviral activity against ZIKV ZG-01 infected in Ifnar1 knockout C57BL/6 mouse assessed as reduction in neuronal necrosis by measuring pyknosis at 20 mg/kg, iv administered daily for 7 days and measured upto 12 dpi by H and E staining based analysis; type: functional, organism-based; conditions: time <= 12.0 day
[21] = system: Zika virus; assay: Antiviral activity against ZIKV ZG-01 infected in Ifnar1 knockout C57BL/6 mouse assessed as reduction in neuronal necrosis by measuring karyolysis at 20 mg/kg, iv administered daily for 7 days and measured upto 12 dpi by H and E staining based analysis; type: functional, organism-based; conditions: time <= 12.0 day
[22] = system: Zika virus; assay: Antiviral activity against ZIKV ZG-01 infected in human SNB-19 cells assessed as reduction in IL-6 expression at 1 to 5 uM by RT-PCR analysis; type: functional, organism-based; conditions: dose 1-5 µM
[23] = system: Zika virus; assay: Antiviral activity against ZIKV ZG-01 infected in human JEG-3 cells assessed as reduction in IL-6 expression at 1 to 5 uM by RT-PCR analysis; type: functional, organism-based; conditions: dose 1-5 µM
[24] = system: Zika virus; assay: Antiviral activity against ZIKV ZG-01 infected in human JEG-3 cells assessed as reduction in TNFalpha expression at 1 to 5 uM by RT-PCR analysis; type: functional, organism-based; conditions: dose 1-5 µM
[25] = system: Zika virus; assay: Antiviral activity against ZIKV ZG-01 infected in human JEG-3 cells assessed as reduction in IFNgamma expression at 1 to 5 uM by RT-PCR analysis; type: functional, organism-based; conditions: dose 1-5 µM
[26] = system: Zika virus; assay: Antiviral activity against ZIKV ZG-01 infected in human SNB-19 cells assessed as reduction in TNFalpha release at 1 to 5 uM by ELISA; type: functional, organism-based; conditions: dose 1-5 µM
[27] = system: SNB-19; assay: Antiinflammatory activity in human SNB-19 cells assessed as reduction in IL-1beta expression by RT-PCR analysis; type: functional, cell-based
[28] = system: SNB-19; assay: Antiinflammatory activity in human SNB-19 cells assessed as reduction in IL-6 expression by RT-PCR analysis; type: functional, cell-based
[29] = system: SNB-19; assay: Antiinflammatory activity in human SNB-19 cells assessed as reduction in IFNgamma expression by RT-PCR analysis; type: functional, cell-based
[30] = system: JEG-3; assay: Antiinflammatory activity in human JEG-3 cells assessed as reduction in IL-1beta expression by RT-PCR analysis; type: functional, cell-based
[31] = system: JEG-3; assay: Antiinflammatory activity in human JEG-3 cells assessed as reduction in IFNgamma expression by RT-PCR analysis; type: functional, cell-based
[32] = system: Zika virus; assay: Antiviral activity against ZIKV ZG-01 infected in human SNB-19 cells assessed as reduction in cell pyroptosis; type: functional, organism-based
[33] = system: Zika virus; assay: Antiviral activity against ZIKV ZG-01 infected in human SNB-19 cells assessed as reduction in LDH release incubated for 36 hrs; type: functional, organism-based; conditions: dose 1-5 µM
[34] = system: Zika virus; assay: Antiviral activity against ZIKV ZG-01 infected in human JEG-3 cells assessed as reduction in GSDMD cleavage by Western blot analysis; type: functional, organism-based; conditions: dose 1-20 µM
[35] = system: Zika virus; assay: Antiviral activity against ZIKV ZG-01 infected in human JEG-3 cells assessed as reduction in GSDME cleavage by Western blot analysis; type: functional, organism-based; conditions: dose 1-20 µM
[36] = biological target: NS5 (Zika virus, UniProt A0A143MHK7); assay: Binding affinity to ZIKV RdRP by SPR assay
NS5, sequence (A0A143MHK7 whole entry): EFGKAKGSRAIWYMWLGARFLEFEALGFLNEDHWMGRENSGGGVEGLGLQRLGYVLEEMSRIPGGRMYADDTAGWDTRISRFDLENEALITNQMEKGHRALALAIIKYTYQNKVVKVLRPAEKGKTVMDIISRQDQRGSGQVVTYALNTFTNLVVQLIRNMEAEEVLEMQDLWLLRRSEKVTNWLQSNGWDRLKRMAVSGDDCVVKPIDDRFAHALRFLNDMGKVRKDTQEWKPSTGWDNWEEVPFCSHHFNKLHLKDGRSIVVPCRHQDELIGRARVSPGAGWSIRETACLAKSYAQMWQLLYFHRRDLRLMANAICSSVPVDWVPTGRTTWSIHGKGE

[37] = system: HEK-293T; assay: Effect on gaussia luciferase expression in HEK293T cells at 1 to 10 uM; type: functional, cell-based; conditions: Homo sapiens, dose 1-10 µM

In the case of `C[C@]1(O)CC2=C(C[C@@]1(C)O)C(=O)c1c(O)cc(N3CCC(c4ccccc4)CC3)c(O)c1C2=O`, the Activity [1] was “Dose-Dependent Effect”, the CC50 at 48 h [2] was greater than 50 µM and the EC90 ([3]; ZG-01, Vero, time 49 hrs) was 6.4 µM. For the same molecule, the Activity ([3]; time 49.0 hrs) was “Dose-Dependent Effect”, the CC50 at 48 h [4] was 65.4 µM and the EC90 ([5]; ZG-01, SNB-19, time 49 hrs) was 6.4 µM. For the same molecule, the Activity ([5]; time 49.0 hrs) was “Dose-Dependent Effect”, the CC50 at 48 h [6] was 66.1 µM and the CC50 at 48 h [7] was 54.7 µM. The Activity [8] was 100%, the Activity [9] was 100% and the Activity [10] was 100%. For the same molecule, the Activity [11] was “Active”, the Activity [12] was “Active” and the Activity [13] was “Non-Toxic”. For the same molecule, the Activity [14] was “Non-Toxic”, the Activity [15] was “Active” and the Activity [16] was “Active”. For the same molecule, the Activity [17] was “Active”, the Activity [18] was “Active” and the Activity [19] was “Active”. The Activity [20] was “Active”, the Activity [21] was “Active” and the Activity [22] was “Active”. The Activity [23] was “Active”, the Activity [24] was “Active” and the Activity [25] was “Active”. For the same molecule, the Activity [26] was “Active”, the Activity [27] was “inactive” and the Activity [28] was “inactive”. The Activity [29] was “inactive”, the Activity [30] was “inactive” and the Activity [31] was “inactive”. For the same molecule, the Activity [32] was “Active”, the Activity [33] was “Dose-Dependent Effect” and the Activity [34] was “Dose-Dependent Effect”. The Activity [35] was “Dose-Dependent Effect”, the pKd [36] was 4.98 and the Activity [37] was “inactive”.
